Here are results for 1 compound from US20230310309A1, “INJECTABLE DEPOT COMPOSITIONS FOR THE DELIVERY OF ANTIVIRAL AGENTS” (Merck Sharp & Dohme LLC, priority 2020, published 2023).

Converted amounts (≈) assume the structure as drawn.

The data set in a line: solubility of islatravir in PBS. The following applies: phosphate buffered saline (PBS), aqueous buffer, 37° C. The class given is physicochemical.

The solubility is how much of the substance goes into solution per volume. Read a high solubility as much dissolved substance. As for `C#C[C@]1(CO)O[C@@H](n2cnc3c(N)nc(F)nc32)C[C@@H]1O` [islatravir, 4′-ethynyl-2-fluoro-2′-deoxyadenosine], the concentration in solution (solubility) was 1350 µg/mL (≈ 4.6 mM).
